Laboratory results from ChEMBL document CHEMBL1138648, “Synthesis of new N-(2-(trifluoromethyl)pyridin-4-yl)anthranilic acid derivatives and their evaluation as anticancer agents” (2004).

What was measured:
Type in all cases: functional
[1] = tested on: SW-620; experiment: Growth inhibitory activity against colon cancer SW-620 cell line was determined; conditions: Homo sapiens
[2] = tested on: HCT-15; experiment: Growth inhibitory activity against colon cancer HCT-15 cell line was determined; conditions: Homo sapiens
[3] = tested on: M14; experiment: Growth inhibitory activity against Melanoma M14 cell line was determined; conditions: Homo sapiens
[4] = tested on: MDA-MB-231; experiment: Growth inhibitory activity against Breast cancer MDA-MB-231/ATCC cell line was determined; conditions: Homo sapiens
[5] = tested on: NCI-H460; experiment: In vitro percent of proliferation of vehicle treated NCI-H460 human lung cell lines was determined at 0.0010 M concentration
[6] = tested on: MCF7; experiment: Growth inhibitory activity against Breast cancer MCF-7 cell line was determined; conditions: Homo sapiens
[7] = tested on: MCF7; experiment: In vitro percent of proliferation of vehicle treated MCF-7 human breast cell lines was determined at 0.0010 M concentration
[8] = tested on: SF-539; experiment: Growth inhibitory activity against CNS cancer SF-539 cell line was determined; conditions: Homo sapiens
[9] = tested on: HCT-116; experiment: Growth inhibitory activity against colon cancer HCT116 cell line was determined; conditions: Homo sapiens
[10] = tested on: NCI-H522; experiment: Growth inhibitory activity against non small cell lung cancer H522 cell line was determined; conditions: Homo sapiens
[11] = tested on: UACC-257; experiment: Growth inhibitory activity against Melanoma UACC-257 cell line was determined; conditions: Homo sapiens
[12] = tested on: Hs-578T; experiment: Growth inhibitory activity against Breast cancer HS 578T cell line was determined; conditions: Homo sapiens
[13] = tested on: LOX IMVI; experiment: Growth inhibitory activity against Melanoma LOX IMVI cell line; conditions: Homo sapiens
[14] = tested on: NCI-H322M; experiment: Growth inhibitory activity against non small cell lung cancer NCI-H322M cell line was determined; conditions: Homo sapiens
[15] = tested on: KM12; experiment: Growth inhibitory activity against colon cancer KM12 cell line was determined; conditions: Homo sapiens
[16] = tested on: OVCAR-5; experiment: Growth inhibitory activity against Ovarian cancer OVCAR-5 cell line was determined; conditions: Homo sapiens
[17] = tested on: HOP-62; experiment: Growth inhibitory activity against non small cell lung cancer HOP-62 cell line was determined; conditions: Homo sapiens
[18] = tested on: RPMI-8226; experiment: Growth inhibitory activity against Leukemia RPMI-8226 cell line was determined; conditions: Homo sapiens
[19] = tested on: RXF 393; experiment: Growth inhibitory activity against Renal cancer RXF 393 cell line was determined; conditions: Homo sapiens
[20] = tested on: BT-549; experiment: Growth inhibitory activity against Breast cancer BT-549 cell line was determined; conditions: Homo sapiens
[21] = tested on: NCI-H226; experiment: Growth inhibitory activity against non small cell lung cancer NCI-H226 cell line was determined; conditions: Homo sapiens
[22] = tested on: SF-295; experiment: Growth inhibitory activity against CNS cancer SF-295 cell line was determined; conditions: Homo sapiens
[23] = tested on: HOP-92; experiment: Growth inhibitory activity against non small cell lung cancer HOP-92 cell line was determined; conditions: Homo sapiens
[24] = tested on: SF-268; experiment: In vitro percent of proliferation of vehicle treated SF-268 human CNS cell lines was determined at 0.0010 M concentration
[25] = tested on: SN12C; experiment: Growth inhibitory activity against Renal cancer SN12C cell line was determined; conditions: Homo sapiens
[26] = tested on: CAKI-1; experiment: Growth inhibitory activity against Renal cancer CAKI-1 cell line was determined; conditions: Homo sapiens
[27] = tested on: OVCAR-4; experiment: Growth inhibitory activity against Ovarian cancer OVCAR-4 cell line was determined; conditions: Homo sapiens
[28] = tested on: OVCAR-8; experiment: Growth inhibitory activity against Ovarian cancer OVCAR-8 cell line was determined; conditions: Homo sapiens
[29] = tested on: NCI/ADR-RES; experiment: Growth inhibitory activity against Breast cancer NCI/ADR-RES cell line was determined; conditions: Homo sapiens
[30] = tested on: SNB-19; experiment: Growth inhibitory activity against CNS cancer SNB-19 cell line was determined; conditions: Homo sapiens
[31] = tested on: NCI-H23; experiment: Growth inhibitory activity against non small cell lung cancer NCI-H23 cell line was determined; conditions: Homo sapiens
[32] = tested on: CCRF-CEM; experiment: Growth inhibitory activity against Leukemia CCRF-CEM cell line was determined; conditions: Homo sapiens
[33] = tested on: HCC 2998; experiment: Growth inhibitory activity against colon cancer HCC2998 cell line was determined; conditions: Homo sapiens
[34] = tested on: SK-MEL-5; experiment: Growth inhibitory activity against Melanoma SK-MEL-5 cell line was determined; conditions: Homo sapiens
[35] = tested on: MDA-MB-435; experiment: Growth inhibitory activity against Breast cancer MDA-MB-435 cell line was determined; conditions: Homo sapiens
[36] = tested on: EKVX; experiment: Growth inhibitory activity against non small cell lung cancer EKVX cell line was determined; conditions: Homo sapiens
[37] = tested on: SK-MEL-28; experiment: Growth inhibitory activity against Melanoma SK-MEL-28 cell line was determined; conditions: Homo sapiens
[38] = tested on: COLO 205; experiment: Growth inhibitory activity against colon cancer COLO 205 cell line was determined; conditions: Homo sapiens
[39] = tested on: SR; experiment: Growth inhibitory activity against Leukemia SR cell line was determined; conditions: Homo sapiens
[40] = tested on: 786-0; experiment: Growth inhibitory activity against Renal cancer 786-0 cell line was determined; conditions: Homo sapiens
[41] = tested on: SK-OV-3; experiment: Growth inhibitory activity against Ovarian cancer SK-OV-3 cell line was determined; conditions: Homo sapiens
[42] = tested on: OVCAR-3; experiment: Growth inhibitory activity against Ovarian cancer OVCAR-3 cell line was determined; conditions: Homo sapiens
[43] = tested on: U-251; experiment: Growth inhibitory activity against CNS cancer U251 cell line was determined; conditions: Homo sapiens
[44] = tested on: HL-60; experiment: Growth inhibitory activity against Leukemia HL-60(TB) cell line was determined; conditions: Homo sapiens
[45] = tested on: UACC-62; experiment: Growth inhibitory activity against Melanoma UACC-62 cell line was determined; conditions: Homo sapiens
[46] = tested on: A549; experiment: Growth inhibitory activity against non small cell lung cancer A549/ATCC cells; conditions: Homo sapiens
[47] = tested on: MOLT-4; experiment: Growth inhibitory activity against Leukemia MOLT-4 cell line was determined; conditions: Homo sapiens
[48] = tested on: K562; experiment: Growth inhibitory activity against Leukemia K-562 cell line was determined; conditions: Homo sapiens
[49] = tested on: DU-145; experiment: Growth inhibitory activity against Prostate cancer DU-145 cell line was determined; conditions: Homo sapiens
[50] = tested on: TK-10; experiment: Growth inhibitory activity against Renal cancer TK-10 cell line was determined; conditions: Homo sapiens
[51] = tested on: NCI-H460; experiment: Growth inhibitory activity against non small cell lung cancer H460 cell line was determined; conditions: Homo sapiens
[52] = tested on: ACHN; experiment: Growth inhibitory activity against Renal cancer ACHN cell line was determined; conditions: Homo sapiens
[53] = tested on: A498; experiment: Growth inhibitory activity against Renal cancer A498 cell line was determined; conditions: Homo sapiens
[54] = tested on: PC-3; experiment: Growth inhibitory activity against Prostate cancer PC-3 cell line was determined; conditions: Homo sapiens
[55] = tested on: HT-29; experiment: Growth inhibitory activity against colon cancer HT-29 cell line was determined; conditions: Homo sapiens
[56] = tested on: SF-268; experiment: Growth inhibitory activity against CNS cancer SF-268 cell line was determined; conditions: Homo sapiens
[57] = tested on: SNB-75; experiment: Growth inhibitory activity against CNS cancer SNB-75 cell line was determined; conditions: Homo sapiens
[58] = tested on: CAKI-1; experiment: Growth inhibitory activity against Renal cancer CAKI-1 cell line […]; conditions: Homo sapiens

CCOC(=O)CNC(=O)c1ccccc1Nc1ccnc(C(F)(F)F)c1
GI50 [1]: 20 µM
GI50 [2]: 29 µM
GI50 [3]: 25 µM
GI50 [4]: 24 µM
Proliferation [5]: 19%
GI50 [6]: 25 µM
Proliferation [7]: 60%
GI50 [8]: 28 µM
GI50 [9]: 21 µM
GI50 [10]: 22 µM
GI50 [11]: 69 µM
GI50 [12]: 46 µM
GI50 [13]: 17 µM
GI50 [14]: 32 µM
GI50 [15]: 27 µM
GI50 [16]: 26 µM
GI50 [17]: 21 µM
GI50 [18]: 11 µM
GI50 [19]: 19 µM
GI50 [20]: 36 µM
GI50 [21]: 100 µM
GI50 [22]: 71 µM
GI50 [23]: 0.05 µM
Proliferation [24]: 59%
GI50 [25]: 24 µM
GI50 [26]: 16 µM
GI50 [27]: 35 µM
GI50 [28]: 26 µM
GI50 [29]: 51 µM
GI50 [30]: 30 µM
GI50 [31]: 22 µM
GI50 [32]: 2.2 µM
GI50 [33]: 71 µM
GI50 [34]: 10 µM
GI50 [35]: 39 µM
GI50 [36]: 31 µM
GI50 [37]: 23 µM
GI50 [38]: 19 µM
GI50 [39]: 17 µM
GI50 [40]: 29 µM
GI50 [41]: 29 µM
GI50 [42]: 24 µM
GI50 [43]: 18 µM
GI50 [44]: 33 µM
GI50 [45]: 17 µM
GI50 [46]: 29 µM
GI50 [47]: 16 µM
GI50 [48]: 18 µM
GI50 [49]: 27 µM
GI50 [50]: 37 µM
GI50 [51]: 20 µM
GI50 [52]: 34 µM
GI50 [53]: 64 µM
GI50 [54]: 22 µM
GI50 [55]: 29 µM
GI50 [56]: 20 µM

O=C(Oc1ccccc1Cl)c1ccccc1Nc1ccnc(C(F)(F)F)c1
GI50 [1]: 0.36 µM
GI50 [2]: 0.22 µM
GI50 [3]: 0.03 µM
GI50 [4]: 0.32 µM
Proliferation [5]: 3%
GI50 [6]: 0.28 µM
Proliferation [7]: 6%
GI50 [8]: 0.58 µM
GI50 [9]: 1.8 µM
GI50 [10]: 0.51 µM
GI50 [12]: 0.32 µM
GI50 [57]: 0.68 µM
GI50 [13]: 0.02 µM
GI50 [14]: 4.8 µM
GI50 [15]: 0.33 µM
GI50 [58]: 0.29 µM
GI50 [16]: 0.46 µM
GI50 [17]: 2.7 µM
GI50 [18]: 0.24 µM
GI50 [20]: 0.34 µM
GI50 [21]: 0.29 µM
GI50 [22]: 0.24 µM
GI50 [23]: 0.02 µM
Proliferation [24]: 17%
GI50 [25]: 0.33 µM
GI50 [27]: 0.26 µM
GI50 [28]: 0.24 µM
GI50 [29]: 0.32 µM
GI50 [30]: 7.4 µM
GI50 [31]: 0.25 µM
GI50 [32]: 0.03 µM
GI50 [33]: 2.2 µM
GI50 [34]: 0.26 µM
GI50 [35]: 0.13 µM
GI50 [36]: 8.6 µM
GI50 [39]: 0.03 µM
GI50 [40]: 0.25 µM
GI50 [41]: 8 µM
GI50 [42]: 0.22 µM
GI50 [43]: 0.27 µM
GI50 [44]: 0.47 µM
GI50 [45]: 0.31 µM
GI50 [46]: 0.73 µM
GI50 [47]: 0.02 µM
GI50 [48]: 0.05 µM
GI50 [49]: 4.3 µM
GI50 [50]: 0.65 µM
GI50 [51]: 0.66 µM
GI50 [52]: 0.28 µM
GI50 [53]: 3.9 µM
GI50 [54]: 0.3 µM
GI50 [55]: 0.39 µM
GI50 [56]: 0.22 µM
